Laboratory results: patent US10815275B2, “Antimicrobial peptoids with improved selectivity and use thereof” (priority 2018, dated 2020)
Values after ≈ are worked out from the molar mass of the structure shown. Non-standard residues stand in square brackets, D forms with d. Residues, ends and D or L forms follow the SMILES beside them. Nspe = C[C@H](NCC(=O)O)c1ccccc1; Nphe = O=C(O)CNCc1ccccc1; Nlys = NCCCCNCC(=O)O

Assays:
[1] = tested on: S. aureus strain KCTC1621; type: cell-based; conditions: for MBC S. aureus: KCTC1621; for MIC S. aureus: KCTC1621, 18 h
Protocol: (§1) In order to measure antimicrobial activity of the peptoids, Gram-positive S. aureus strain KCTC1621, or Gram-negative E. coli strain ATCC25922 was treated with the peptoids prepared in Preparation Example 1, and minimum inhibitory concentrations were measured. Peptoid NOS. 1 and 2 are already known peptoids and were used for the purpose of making a comparison with novel peptoids in terms of antimicrobial activity.
(§2) Specifically, S. aureus strain KCTC1621 or E. coli strain ATCC25922 was inoculated into Mueller Hinton Broth (MHB2) liquid medium on which cations were adjusted, cultured at a temperature of 37° C. for 18 hours, and then subcultured for 4 hours. Thereafter, the strains were diluted with MHB2 liquid medium containing 0.2% bovine serum albumin and 0.01% acetic acid so that each bacterial number was 2×10^5 colony-forming units (CFU) per 1 mL, and dispensed into 96-well microtiter plates at 100 μL each. A peptoid stock which is 40-fold more concentrated than a concentration to be tested was added to each well at 2.5 μL or lower so that the peptoid stock was 2-fold serially diluted using sterile water. Thereafter, the plates were incubated at a temperature of 37° C. for 18 hours.
(§3) Thereafter, absorbance was measured at a wavelength of 600 nm using a microplate reader (Bio-Rad). The lowest peptoid concentration that completely suppresses growth of microorganisms was measured by a minimum inhibitory concentration (MIC) and a minimum bactericidal concentration (MBC), and the measurement results are shown in Table 5 below. Each of the MIC values was calculated as an average value of numerical values obtained through three independent experiments.

E. coli strain ATCC25922 = type: cell-based; conditions: for MBC E. coli: ATCC25922; for MIC E. coli: ATCC25922, 18 h
Protocol: as §1, §2, §3

[2] = Metabolic stability in human liver S9 fraction, HPLC; type: in vitro ADME; conditions: human
Protocol: In order to identify metabolic stability of the peptoids synthesized in Preparation Example 1, such peptoids were subjected to enzymatic reaction using S9 fraction which is a mixture of human liver tissue-extracted metabolic enzymes. Thereafter, for the reaction products, metabolites were quantitated using HPLC.
Specifically, Peptoid NOS. 1 and 4, and Pexiganan as a peptide control (40 μL each, 100 μM) were treated with […], 3.3 mM MgCl2, and 1.3 mM NADPH buffer (306 μL, pH=7.4), to prepare respective samples. The respective samples were treated with S9 fraction (2 μL, 0.1 mg/mL) and then incubated at a temperature of 37° C. When 0, 1, 4, and 24 hours had elapsed after treatment with the S9 fraction, 40 μL of each sample was taken out, and acetonitrile containing the same amount of 0.1% trifluoroacetic acid was used to stop activity of enzymes contained in the S9 fraction. Thereafter, proteins precipitated with acetonitrile were centrifuged at a condition of 1,000×g for 10 minutes at a temperature of 4° C. Then, supernatant was analyzed by HPLC to identify an amount of the remaining peptoid which had not been degraded by the enzymes in the S9 fraction.

[3] = tested on: S. epidermidis (ET-024 MRSA); assay: MIC in multidrug-resistant bacteria panel, modified microdilution; type: cell-based; conditions: overnight, 37° C.
Protocol: (§4) Minimum inhibitory concentrations of the prepared peptoids for multidrug-resistant bacteria were measured using a modified microdilution method in Difco Mueller Hinton medium, and tests were done on a panel of bacterial pathogens which have resistance and tolerance against common antibiotics.
(§5) Briefly, a peptoid concentrate, which is 10-fold more concentrated than a final concentration, was serially diluted with a medium containing 0.2% bovine serum albumin and 0.01% acetic acid. 10 μL of the 10-fold concentrated peptoid concentrate and 90 μL of Muller Hinton medium were added to each well of a 96-well polypropylene microtitre plate. Bacteria were added to the plate so that a final concentration thereof was 2×10^5 CFU/mL, and then incubated overnight at a temperature of 37° C. The minimum inhibitory concentration was defined as a concentration at which no bacterial growth is observed.

P. aeruginosa (198B MDR) = assay: as above; type: cell-based; conditions: overnight, 37° C.
Protocol: as §4, §5

P. aeruginosa (PA01) = assay: as above; type: cell-based; conditions: overnight, 37° C.
Protocol: as §4, §5

red blood cells = assay: Hemolytic activity on red blood cells; type: cell-based, mouse
Protocol: In order to identify, through red blood cell hemolytic activity in mice, whether the peptoids synthesized in Preparation Example 1 are cytotoxic, red blood cells isolated from 10 mL of mouse blood were washed three times with phosphate-buffered saline (PBS, mixed solution of 35 mM phosphate buffer/150 mM NaCl, pH 7.4), and then centrifuged at a centrifugal force of 1,000 ×g for 10 minutes. A 10% (v/v) red blood cell solution diluted with PBS was dispensed into a 96-well microtiter plate at 150 μL each, and then a peptide solution was added at 50 μL each. Thereafter, the 96-well microtiter plate was incubated at a temperature of 37° C. for 1 hour.
The incubated 96-well microtiter plate was centrifuged at a centrifugal force of 1,000×g for 5 minutes. Thereafter, supernatant was taken at 100 μL each and transferred to a new 96-well microtiter plate. Then, absorbance at a wavelength of 540 nm was measured (Table 6).
In this case, a value obtained in a case of being treated with 0.1% (v/v) Triton X-100 was set as 100% hemolysis, and hemolytic activity (degree of cell destruction) of the peptoids was calculated using the following Equation 1. In the Equation 1, A is absorbance of the peptoid solution at a wavelength of 540 nm, B is absorbance of 0.1% Triton X-100 at a wavelength of 540 nm, and C is absorbance of the PBS solution at a wavelength of 540 nm. In this case, Peptoid NO. […] Degree of cell destruction (% hemolysis)=(A−C)/(B−C)[…] [Equation 1]
In Table 6, HD10 means a peptoid concentration which causes 10% hemolysis of red blood cells, and HD50 means a peptoid concentration which causes 50% hemolysis of red blood cells. In addition, Hmax is a hemolysis rate (%) at 200 μM which is the highest peptoid concentration used in the experiment.
Hemolytic activity of Peptoid NOS. 1, 18 to 23, and the peptide Pexiganan was measured in the same manner as in Experimental Example 2.

E. coli = assay: Selectivity analysis, HD10 divided by MIC for E. coli; conditions: HD10 of Table 6 divided by MIC for E. coli ATCC25922
Protocol: In order to identify changes in selectivity depending on alteration of degree of folding in helical structure of peptoids, selectivity of each peptoid was calculated using the resultant values measured in the Experimental Examples 1 and 2. The selectivity was obtained by dividing the HD10 value by the minimum inhibitory concentration for E. coli (Table 8).

E. coli (63103 ESBL) = assay: MIC in multidrug-resistant bacteria panel, modified microdilution; type: cell-based; conditions: overnight, 37° C.
Protocol: as §4, §5

S. aureus (ATCC25923) = assay: as above; type: cell-based; conditions: overnight, 37° C.
Protocol: as §4, §5

Row | MIC S. aureus [1] [µM] | MIC E. coli (E. coli strain ATCC25922) [µM] | remaining amount after S9 fraction treatment ([2]; s9, 24 h) [%] | remaining at 24 h, 11.5 μM ([2]; s9, pH 7.4) [%] | Selectivity [HD10/MIC (E. coli)] (E. coli) | Structure (SMILES) | MBC S. aureus [1] [µM] | MBC E. coli (E. coli strain ATCC25922) [µM] | minimum inhibitory concentration S. epidermidis (ET-024 MRSA) [3] | minimum inhibitory concentration P. aeruginosa (198B MDR) (P. aeruginosa (198B MDR)) | minimum inhibitory concentration P. aeruginosa (PA01) (P. aeruginosa (PA01)) | HD10 (red blood cells) | HD50 (red blood cells) | minimum inhibitory concentration E. coli (63103 ESBL) (E. coli (63103 ESBL)) | minimum inhibitory concentration S. aureus (ATCC25923) (S. aureus (ATCC25923))
1 | 3.1 (≈ 5.34 µg/mL) | 12.5 (≈ 21.5 µg/mL) | ≥ 60 | 74 | 7.1 | C[C@@H](c1ccccc1)N(CC(=O)N(CCCCN)CC(=O)N(CC(=O)N(CC(=O)N(CCCCN)CC(=O)N(CC(=O)N(CC(=O)N(CCCCN)CC(=O)N(CC(=O)N(CC(N)=O)Cc1ccccc1)Cc1ccccc1)Cc1ccccc1)Cc1ccccc1)Cc1ccccc1)Cc1ccccc1)C(=O)CN(Cc1ccccc1)C(=O)CNCCCCN [compound 4] (H-[Nlys][Nphe][Nspe][Nlys][Nphe][Nphe][Nlys][Nphe][Nphe][Nlys][Nphe][Nphe]-NH2) | 3.1 (≈ 5.34 µg/mL) | 25 (≈ 43 µg/mL) | <0.8 to 0.8 | 6.3 | 6.3 | 89.6 | > 200 |  | 
2 | 3.1 (≈ 5.42 µg/mL) | 25 (≈ 43.7 µg/mL) |  |  | 3.3 | C[C@@H](c1ccccc1)N(CC(N)=O)C(=O)CN(Cc1ccccc1)C(=O)CN(CCCCN)C(=O)CN(Cc1ccccc1)C(=O)CN(Cc1ccccc1)C(=O)CN(CCCCN)C(=O)CN(Cc1ccccc1)C(=O)CN(Cc1ccccc1)C(=O)CN(CCCCN)C(=O)CN(C(=O)CN(C(=O)CNCCCCN)[C@@H](C)c1ccccc1)[C@@H](C)c1ccccc1 [compound 13] | 6.3 (≈ 11 µg/mL) | 25 (≈ 43.7 µg/mL) | <0.8 to 0.8 | 6.3 | 6.3 | 81.7 | > 200 | 6.3 | 3.1
